Measurements published in article PMC4366261, “Characterization of the Intestinal Absorption of Seven Flavonoids from the Flowers of Trollius chinensis Using the Caco-2 Cell Monolayer Model” (PLoS ONE, 2015).
Converted amounts (≈) assume the structure as drawn.

Legend:
Caco-2 cell monolayer = experiment: Transport experiment across Caco-2 cell monolayer (Papp); assay type: in vitro ADME, human; conditions: for Absorption mechanism: from P ratio, time course and concentration course; for P ratio Papp AP→BL/Papp BL→AP: 50 μmol/L, 90 min
Protocol: (§1) For cells differentiation to form a confluent monolayer, Caco-2 cells were seeded into the inserts of the 12-well Transwell plates at the density of 1.0×10^5 cells/cm^2. The culture medium was replaced on every other day in the first week, and then at daily intervals for the apical (AP) side and 2 days intervals for the basal (BL) side until the transport experiment was performed 21 days after seeding. The AP and BL sides contained 0.5 and 1.5 mL of culture medium, respectively. […] The cell inserts were considered as qualified only if the resistance reached above 600 Ω cm^2.
(§2) On day 21, the transport experiment was initiated by removal of the culture medium from AP and BL sides. The Caco-2 monolayers were rinsed twice with pre-warmed Hanks balanced salt solution (HBSS) and were incubated with the same solution at 37°C for 30 min. The seven individual test compounds and an equimolar mixture of them were pre-dissolved in DMSO, and then diluted to 25, 50, and 100 μmol/L with an appropriate volume of HBSS to allow the final concentration of DMSO to be less than 1%. The test compounds were added to the AP (0.5 mL) or BL side (1.5 mL), while the receiving chamber contained the corresponding volume of HBSS. Incubation was performed at 37°C for 180 min, with shaking at 50 rpm. At 30, 60, 90, 120, 150, and 180 min, each 0.2 mL of the solution from BL or AP side was collected, and replaced with an equal volume of HBSS. The samples were frozen immediately and stored below-20°C before analysis.
(§3) The apparent permeability coefficients (Papp) were determined in this study by HPLC quantification of the compounds in the receiver chamber after transport across the Caco-2 monolayer. The calculation was carried out in accordance with the formula Papp = (dQ/dt)×(1/A)×(1/C0), wherein dQ/dt was the rate of appearance of the test compound in the receiver compartment (μmol/s); C0 was the initial concentration of test compound in the donor compartment (μmol/mL); and A was the surface area of the Caco-2 monolayer (cm^2). The percentage transported (%) was calculated using the formula % transported = QB/(CS×VD)×100, wherein QB was the quantity of compound in the receiver compartment (μmol); CS was the concentration of test compound in the donor compartment (μmol/mL); VD was the liquid volume of the donor compartment (mL). The transport rate (μmol/h/cm^2) was calculated using the formula transport rate = QB/(t×A), wherein QB was the quantity of compound in the receiver compartment (μmol); t was the incubation time (h); A was the surface area of the Caco-2 monolayer (cm^2).

[1] = as above; assay type: in vitro ADME, human; conditions: human
Protocol: as §1, §2, §3

[2] = Stability of sample solutions at room temperature by HPLC; assay type: physicochemical; conditions: sample solution at room temperature, HPLC at 0, 1, 2, 4, 6, 12 and 24 h
Protocol: The intra-day precision was determined by investigating the analytes in sextuplicates during a single day, and the inter-day precision was determined by conducting the intra-day experiment on two consecutive days. […] Each one sample solution of the seven flavonoids was kept at room temperature, and then their stabilities were determined by injecting them into apparatus at 0, 1, 2, 4, 6, 12, and 24 h.

Caco-2 cells = experiment: MTT assay, survival rate of Caco-2 cells; assay type: cell-based, human; conditions: 4 h
From the text: The human colon adenocarcinoma cell line Caco-2 (No. 3111C0001CCC000100, passage 32) was obtained from the Cell Resource Center, Peking Union Medical College (the headquarters of National Infrastructure of Cell Line Resource, NSTI) on May 3rd, 2013. The cell line was checked free of mycoplasma contamination by PCR and culture, its species origin was confirmed with PCR, and its identity was authenticated with STR profiling (FBI, CODIS). All results of the above tests can be viewed on the website (http://cellresource.cn). The cells were cultured in 25 cm^2 flasks in DMEM medium supplemented with 10% (v/v) FBS, 1% (v/v) NEAA, and 1% (v/v) penicillin-streptomycin, in an atmosphere of 5% CO2 at 37°C and constant moisture. The culture medium was replaced every 2 to 3 days, and the cells were split 1:2 or 1:3 as 80% confluence was obtained.
Caco-2 cells at logarithmic growth phase were seeded into 96-well plates and incubated at 37°C in an atmosphere of 5% CO2 and constant moisture in the incubator. After the cells reached confluence, they were cultured in quadruplicate with 100 μL of HBSS solution (negative control) and compound-containing HBSS solution (seven flavonoids or paclitaxel (positive control) at the concentrations of 25, 50, and 100 μmol/L, respectively) for 4 h. Then, HBSS solution was replaced by 100 μL of MTT solution (0.5 mg/mL), and the supernatant was discarded after 4 h of incubation at 37°C. The cells were shaken with 150 μL of DMSO for 10 min, and the absorbance was read on the microplate reader at 570 nm. The survival rate %=A¯/A0¯×100 , wherein A¯ was the average absorbance value of treatment or positive control group, and A0¯ was the average absorbance value of negative control group.

murine ear edema model = conditions: cited from earlier work
P-glycoprotein (P-gp) = target: T1, P-glycoprotein (P-gp) (Homo sapiens, UniProt P08183); experiment: Transporter inhibition experiment with verapamil hydrochloride (P-gp) in Caco-2 monolayer; assay type: in vitro ADME; conditions: 50 μmol/L compound, 100 μmol/L verapamil hydrochloride, AP to BL; for Effect of verapamil hydrochloride on the transport: 180 min
T1 construct: endogenous in cells; host or cells: Caco-2 cells
Protocol: On day 21, transport study was initiated by carefully removing the culture medium from both AP and BL sides. The Caco-2 monolayers were rinsed twice with pre-warmed HBSS and were incubated with the same solution at 37°C for 30 min. […] The final concentration of DMSO in these solutions was less than 1%. […] Incubation was performed at 37°C for 180 min, with shaking at 50 rpm. […] The samples were frozen immediately and stored below-20°C before analysis.

[3] = test system: parainfluenza virus type 3 (Para 3); design: method as in PMID 11849843; conditions: cited from earlier work
Staphylococcus aureus = test system: Staphylococcus aureus; design: method as in earlier work; conditions: cited from earlier work
S. epidermidis = test system: S. epidermidis; design: method as in earlier work; conditions: cited from earlier work
[4] = Caco-2, in the equimolar mixture of the seven flavonoids
[5] = in the equimolar mixture of the seven flavonoids

T1 sequence (P08183 whole entry): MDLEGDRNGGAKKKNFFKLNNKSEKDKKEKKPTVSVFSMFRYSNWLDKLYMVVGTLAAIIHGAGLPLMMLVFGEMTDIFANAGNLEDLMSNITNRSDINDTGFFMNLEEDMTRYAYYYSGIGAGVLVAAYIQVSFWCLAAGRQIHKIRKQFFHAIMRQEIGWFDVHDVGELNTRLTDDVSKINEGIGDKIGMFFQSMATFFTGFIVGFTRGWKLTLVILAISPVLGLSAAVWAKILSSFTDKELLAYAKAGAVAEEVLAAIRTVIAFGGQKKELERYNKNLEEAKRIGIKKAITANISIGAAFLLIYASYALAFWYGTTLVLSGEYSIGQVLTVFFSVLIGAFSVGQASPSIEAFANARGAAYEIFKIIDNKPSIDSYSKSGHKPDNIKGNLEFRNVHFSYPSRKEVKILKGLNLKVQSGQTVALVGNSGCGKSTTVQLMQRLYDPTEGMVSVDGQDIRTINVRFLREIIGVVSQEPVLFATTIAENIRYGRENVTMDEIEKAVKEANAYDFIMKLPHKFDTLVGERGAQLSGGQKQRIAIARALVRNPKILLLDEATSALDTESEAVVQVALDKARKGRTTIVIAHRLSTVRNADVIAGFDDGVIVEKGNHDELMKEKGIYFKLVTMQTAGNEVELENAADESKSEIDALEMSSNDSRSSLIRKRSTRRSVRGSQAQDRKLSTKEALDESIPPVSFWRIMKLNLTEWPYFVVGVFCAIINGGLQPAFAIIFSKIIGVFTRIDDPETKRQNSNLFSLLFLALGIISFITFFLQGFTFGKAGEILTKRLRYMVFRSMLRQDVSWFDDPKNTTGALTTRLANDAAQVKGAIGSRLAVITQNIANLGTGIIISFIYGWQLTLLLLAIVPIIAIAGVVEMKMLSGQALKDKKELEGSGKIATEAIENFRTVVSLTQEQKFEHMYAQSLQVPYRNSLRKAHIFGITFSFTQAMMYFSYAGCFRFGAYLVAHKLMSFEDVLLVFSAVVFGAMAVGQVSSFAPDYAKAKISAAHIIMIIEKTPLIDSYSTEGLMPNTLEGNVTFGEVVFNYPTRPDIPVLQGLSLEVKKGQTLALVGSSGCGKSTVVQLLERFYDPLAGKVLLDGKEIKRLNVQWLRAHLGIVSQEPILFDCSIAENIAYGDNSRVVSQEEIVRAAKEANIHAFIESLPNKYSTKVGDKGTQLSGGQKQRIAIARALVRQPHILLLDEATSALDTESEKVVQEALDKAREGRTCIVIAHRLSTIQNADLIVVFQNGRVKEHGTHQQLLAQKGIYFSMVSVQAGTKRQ

Papp A→B at 90 min, 50 μmol/L [1, 4] [×10⁻⁶ cm/s] | Papp B→A at 90 min, 50 μmol/L [1, 4] [×10⁻⁶ cm/s] | Papp A→B at 90 min, 50 μmol/L ([1]; Caco-2, individual compound) [×10⁻⁶ cm/s] | Papp B→A at 90 min, 50 μmol/L ([1]; Caco-2, individual compound) [×10⁻⁶ cm/s] | RSD% values for 24-hour stability [2] [%] | Structure (SMILES) | Absorption mechanism (Caco-2 cell monolayer) | P ratio Papp AP→BL/Papp BL→AP (Caco-2 cell monolayer; [5]) | P ratio Papp AP→BL/Papp BL→AP (Caco-2 cell monolayer; individual compound) | Survival rates (%) (Caco-2 cells; 25 μmol/L) | Survival rates (%) (Caco-2 cells; 50 μmol/L) | Survival rates (%) (Caco-2 cells; 100 μmol/L) | other results
1.92 ± 0.42 | 0.81 ± 0.27 | 1.85 ± 0.02 | 4.68 ± 0.02 | 2.65 | O=c1cc(-c2ccc(O)cc2)oc2c([C@@H]3O[C@H](CO)[C@@H](O)[C@H](O)[C@H]3O[C@@H]3O[C@H](CO)[C@H](O)[C@H](O)[C@H]3O)c(O)cc(O)c12 [2”-O-β-L-galactopyranosylvitexin, 8-((2S,3R,4S,5S,6R)-4,5-dihydroxy-6-(hydroxymethyl)-3-(((2S,3R,4S,5R,6R)-3,4,5-trihydroxy-6-(hydroxymethyl)tetrahydro-2H-pyran-2-yl)oxy)tetrahydro-2H-pyran-2-yl)-5,7-dihydroxy-2-(4-hydroxyphenyl)-4H-chromen-4-one] | transporter mediated efflux in addition to passive diffusion | – | – | – | – | – | –
1.44 ± 0.47 | 0.54 ± 0.31 | 0.98 ± 0.03 | 1.19 ± 0.07 | 2.95 | COc1cc(O)c2c(=O)cc(-c3ccc(O)c(O)c3)oc2c1[C@@H]1O[C@H](CO)[C@@H](O)[C@H](O)[C@H]1O [Isoswertiajaponin, 2-(3,4-dihydroxyphenyl)-5-hydroxy-7-methoxy-8-((2S,3R,4R,5S,6R)-3,4,5-trihydroxy-6-(hydroxymethyl)tetrahydro-2H-pyran-2-yl)-4H-chromen-4-one] | passive diffusion without participation of transporter | 2.66 | 0.83 | 116.7±8.9 | 124.6±5.4 | 109.1±12.6 | P ratio Papp AP→BL/Papp BL→AP (Caco-2 cell monolayer; individual compound, listed as isoswertiajaponin): ~1
2.69 ± 0.37 | 1.59 ± 0.2 | 1.07 ± 0.08 | 0.94 ± 0.18 | 2.82 | COc1cc(O)c2c(=O)cc(-c3ccc(O)cc3)oc2c1[C@@H]1O[C@H](CO)[C@@H](O)[C@H](O)[C@H]1O [Isoswertisin, 5-hydroxy-2-(4-hydroxyphenyl)-7-methoxy-8-((2S,3R,4R,5S,6R)-3,4,5-trihydroxy-6-(hydroxymethyl)tetrahydro-2H-pyran-2-yl)-4H-chromen-4-one] | passive diffusion without participation of transporter | 1.69 | 1.14 | 110.8±9.9 | 115.3±5.5 | 116.0±8.6 | P ratio Papp AP→BL/Papp BL→AP (Caco-2 cell monolayer; individual compound, listed as isoswertisin): ~1
– | – | – | – | – | CC(=O)O[C@H]1C(=O)[C@@]2(C)[C@H]([C@H](OC(=O)c3ccccc3)[C@]3(O)C[C@H](OC(=O)[C@H](O)[C@@H](NC(=O)c4ccccc4)c4ccccc4)C(C)=C1C3(C)C)[C@]1(OC(C)=O)CO[C@@H]1C[C@@H]2O [Paclitaxel, reference compound] | – | – | – | 67.3±8.2 | 45.5±6.7 | 37.4±3.5 | Survival rates (%) (Caco-2 cells; 25 μmol/L, listed as paclitaxel): 67.3%; Survival rates (%) (Caco-2 cells; 50 μmol/L, listed as paclitaxel): 45.5%; Survival rates (%) (Caco-2 cells; 100 μmol/L, listed as paclitaxel): 37.4%
– | – | – | – | – | CC(C)NCC(O)COc1cccc2ccccc12 (centres unmarked) [propranolol, reference compound] | – | – | – | – | – | – | Papp ([1]; Caco-2, standard compounds, validation of the monolayer model): 14.4 ×10⁻⁶ cm/s

Structure (SMILES) | Papp A→B at 90 min, 50 μmol/L [1, 4] [×10⁻⁶ cm/s] | Papp B→A at 90 min, 50 μmol/L [1, 4] [×10⁻⁶ cm/s] | Papp A→B at 90 min, 50 μmol/L ([1]; Caco-2, individual compound) [×10⁻⁶ cm/s] | Papp B→A at 90 min, 50 μmol/L ([1]; Caco-2, individual compound) [×10⁻⁶ cm/s] | RSD% values for 24-hour stability [2] [%] | Absorption mechanism (Caco-2 cell monolayer) | P ratio Papp AP→BL/Papp BL→AP (Caco-2 cell monolayer; [5]) | P ratio Papp AP→BL/Papp BL→AP (Caco-2 cell monolayer; individual compound) | Survival rates (%) (Caco-2 cells; 25 μmol/L) | Survival rates (%) (Caco-2 cells; 50 μmol/L) | Survival rates (%) (Caco-2 cells; 100 μmol/L) | other results
O=c1cc(-c2ccc(O)c(O)c2)oc2c([C@@H]3O[C@H](CO)[C@@H](O)[C@H](O)[C@H]3O)c(O)cc(O)c12 [Orientin, 2-(3,4-dihydroxyphenyl)-5,7-dihydroxy-8-((2S,3R,4R,5S,6R)-3,4,5-trihydroxy-6-(hydroxymethyl)tetrahydro-2H-pyran-2-yl)-4H-chromen-4-one] | 1.14 ± 0.27 | 0.88 ± 0.31 | 0.75 ± 0.05 | 1.14 ± 0.08 | 2.35 | transporter mediated efflux in addition to passive diffusion | 1.29 | 0.66 | 100.4±1.3 | 114.3±7.5 | 111.5±2.4 | Anti-inflammatory effect against murine ear edema (murine ear edema model): possess anti-inflammatory effects; Substrate of P-gp (P-glycoprotein (P-gp)): substrates of P-gp; Effect of verapamil hydrochloride on the transport (P-glycoprotein (P-gp)): increased; IC50 against parainfluenza virus type 3 [3]: 11.7 µg/mL (≈ 26.1 µM); MIC toward S. aureus (Staphylococcus aureus): 25 µg/mL (≈ 55.8 µM); MIC toward S. epidermidis (S. epidermidis): 25 µg/mL (≈ 55.8 µM)
O=c1cc(-c2ccc(O)cc2)oc2c([C@@H]3O[C@H](CO)[C@@H](O)[C@H](O)[C@H]3O)c(O)cc(O)c12 [Vitexin, 5,7-dihydroxy-2-(4-hydroxyphenyl)-8-((2S,3R,4R,5S,6R)-3,4,5-trihydroxy-6-(hydroxymethyl)tetrahydro-2H-pyran-2-yl)-4H-chromen-4-one] | 1.6 ± 0.18 | 1.03 ± 0.28 | 2.26 ± 0.37 | 3.38 ± 0.54 | 2.42 | transporter mediated efflux in addition to passive diffusion | 1.55 | 0.67 | 104.5±10.5 | 101.3±2.3 | 98.2±8.9 | Anti-inflammatory effect against murine ear edema (murine ear edema model): possess anti-inflammatory effects; Substrate of P-gp (P-glycoprotein (P-gp)): substrates of P-gp; Effect of verapamil hydrochloride on the transport (P-glycoprotein (P-gp)): increased; IC50 against parainfluenza virus type 3 [3]: 20.8 µg/mL (≈ 48.1 µM); MIC toward S. aureus (Staphylococcus aureus): 100 µg/mL (≈ 231 µM); MIC toward S. epidermidis (S. epidermidis): 25 µg/mL (≈ 57.8 µM)
